Key:
Type in all cases: cell-based, human
[1] = system: erythrocytes; conditions: pH 5.8
Protocol: In order to assess the polymer's potential for endosomolytic activity, a membrane disruption assay was utilized to measure the capacity of the polymer to trigger pH-dependent disruption of lipid bilayer membranes as shown in FIG. 5. Whole human blood was drawn and centrifuged for plasma removal. The remaining erythrocytes were washed three times with 150 mM NaCl and resuspended into phosphate buffers corresponding to physiological (pH 7.4), early endosome (pH 6.6), and late endosome (pH 5.8) environments. The polymer (1-40 μg/mL) or 1% Triton X-100 was added to the erythrocyte suspensions and incubated for 1 hour at 37° C. Intact erythrocytes were pelleted via centrifugation, and the hemoglobin content within the supernatant was measured via absorbance at 541 nm. Percent hemolysis was determined relative to Triton X-100. Polymer hemolysis was quantified at concentrations ranging from 1-40 μg/mL relative to 1% v/v Triton X-100. This experiment was completed 2 times in triplicate, yielding similar results. The data shown represent a single experiment conducted in triplicate±standard deviation.

[2] = system: HeLa cells; experiment: Flow cytometry evaluation of mitochondrial membrane potential (JC-1 dye); conditions: 2 hours, 10 μM peptide or equivalent conjugate or polymer alone, versus no treatment
Protocol: (§1) HeLas, human cervical carcinoma cells (ATCC CCL-2), were maintained in minimum essential media (MEM) containing L-glutamine, 1% penicillin-streptomycin, and 10% FBS. Prior to experiments, HeLas were allowed to adhere overnight in 8-well chamber slides (20,000 cells/well) for microscopy or 96-well plates (10,000 cells/well) for other assays. Polymer-peptide conjugates and controls were added in MEM with 1% FBS.
Loss of mitochondrial membrane potential, a known indicator for apoptosis, was assessed using the JC-1 dye. […] HeLas were incubated for 2 hours with 10 μM peptide or equivalent conjugate or polymer alone. JC-1 was added at a final concentration of 5 μg/mL and incubated for 15 minutes. Cells were washed 2 times with PBS, trypsinized, and resuspended in 0.5% BSA for flow cytometric analysis. Percent of cells displaying mitochondrial depolarization was quantified based on the number of green fluorescent cells that were negative for red fluorescence. Here, a significant loss of red fluorescent JC-1 aggregates and therefore a loss in mitochondrial polarization was detected following treatment with both the Antp-BH3 peptide and the polymer peptide conjugate (FIG. 8A).

[3] = system: caspases 3 and 7; experiment: Caspase 3/7 activity assay; conditions: HeLa, 30 minutes, 25 μM peptide (alone or as conjugate) or equivalent polymer, relative to no treatment
Protocol: as §1
Caspase 3/7 activation was measured using a commercially available assay kit. This assay utilizes a profluorescent caspase 3/7 substrate that once enzymatically cleaved becomes fluorescent allowing for determination of relative enzyme activity using a fluorescent plate reader. Here, HeLas were incubated for 30 minutes with 25 μM peptide (alone or as polymer conjugate) in addition to polymer alone in a quantity equivalent to the conjugate samples. Afterwards, a caspase 3/7 fluorigenic indicator was added directly to the culture media for each sample. Plates were shaken for 1 hour and then assayed using a fluorescent plate reader. Data were expressed as percent caspase activity relative to samples receiving no treatment.

[4] = system: HeLa cells; experiment: Fluorescent microscopic analysis of conjugate endosomal escape; conditions: Alexa-488 labeled peptide, 25 μM Antp-BH3, 15 minutes treatment
Protocol: as §1
An amine reactive Alexa-488 succinimidyl ester was mixed at a 1 to 1 molar ratio with the Antp-BH3 peptide in anhydrous dimethyl formamide (DMF). Unreacted fluorophore and organic solvent were removed using a PD 10 desalting column, and the fluorescently labeled peptide was lyophilized. Alexa-488 labeled Antp-BH3 was conjugated to the polymer as described above. Free peptide or polymer-peptide conjugate was applied to HeLas grown on chambered microscope slides at a concentration of 25 μM Antp-BH3. Cells were treated for 15 minutes, washed twice with PBS, and incubated in fresh media for an additional 30 minutes. The samples were washed again and fixed with 4% paraformaldehyde for 10 minutes at 37° C. Slides were mounted with ProLong Gold Antifade reagent containing DAPI and imaged using a fluorescent microscope.

[5] = system: HeLa cells; experiment: Lactate dehydrogenase (LDH) cytotoxicity assay; conditions: HeLa cervical cancer cells
Protocol: Bioconjugate efficacy for triggering tumor cell death was determined using a lactate dehydrogenase (LDH) cytotoxicity assay. At the end of each time point, cells were washed two times with PBS and then lysed with cell lysis buffer (100 μL/well, 20 mM Tris-HCl, pH 7.5, 150 mM NaCl, 1 mM Na2EDTA, 1 mM EGTA, 1% Triton, 2.5 mM sodium pyrophosphate, 1 mM β-glycerophosphate, 1 mM sodium orthovanadate) for 1 hour at 4° C. 20 μl of lysate from each sample was diluted into 80 μl PBS, and LDH was quantified by mixing with 100 μL of the LDH substrate solution. Following a 10 minute incubation, LDH was determined by measuring absorbance at 490 nm. Percent viability was expressed relative to samples receiving no treatment.

Substance	hemolysis [1]	increase in percent of cells exhibiting loss of mitochondrial polarity [2]	caspase 3/7 activation [3]	peptide intracellular localization (fluorescence pattern) [4]	HeLa cell death / treatment effect (qualitative) [5]
Poly[HPMA]-b-[(PAA)(BMA)(DMAEMA)] [diblock copolymer]	significant increase in hemolysis	–	–	–	–
NH2-RQIKIWFQNRRMKWKKMGQVGRQLAIIGDDINRRYDSC-COOH (H-RQIKIWFQNRRMKWKKMGQVGRQLAIIGDDINRRYDSC-OH) [Antp-BH3 peptide, cell internalizing form of the Bak-BH3 peptide fused to Antennapedia peptide, carboxy-terminal cysteine]	–	approximately 4 fold	approximately 2.5 fold	punctate staining	negligible treatment effect
